Laboratory results as given in patent publication US20090181972A1, “Novel Inhibitors of Cysteine Proteases, the Pharmaceutical Compositions Thereof and their Therapeutic Applications” (priority 2005, published 2009).
Read-outs that look alike come from different tables or passages of the source.

Experiments:
[1] = biological target: T1, USP8 (Homo sapiens, UniProt P40818); experiment: USP8 activity assay; type: biochemical; conditions: 400 nM Ub-AMC, 630 pM enzyme, pH8.8; pre-incubated 30 minutes at 25° C., 60 minutes at 37° C.; sigmoidal fit; read-out: USP 8
T1 construct: His tag (pFastBac-HT vector) (N); made in house; host or cells: Sf9 or High Five insect cells (baculovirus)
T1 sequence (P40818 1-1118): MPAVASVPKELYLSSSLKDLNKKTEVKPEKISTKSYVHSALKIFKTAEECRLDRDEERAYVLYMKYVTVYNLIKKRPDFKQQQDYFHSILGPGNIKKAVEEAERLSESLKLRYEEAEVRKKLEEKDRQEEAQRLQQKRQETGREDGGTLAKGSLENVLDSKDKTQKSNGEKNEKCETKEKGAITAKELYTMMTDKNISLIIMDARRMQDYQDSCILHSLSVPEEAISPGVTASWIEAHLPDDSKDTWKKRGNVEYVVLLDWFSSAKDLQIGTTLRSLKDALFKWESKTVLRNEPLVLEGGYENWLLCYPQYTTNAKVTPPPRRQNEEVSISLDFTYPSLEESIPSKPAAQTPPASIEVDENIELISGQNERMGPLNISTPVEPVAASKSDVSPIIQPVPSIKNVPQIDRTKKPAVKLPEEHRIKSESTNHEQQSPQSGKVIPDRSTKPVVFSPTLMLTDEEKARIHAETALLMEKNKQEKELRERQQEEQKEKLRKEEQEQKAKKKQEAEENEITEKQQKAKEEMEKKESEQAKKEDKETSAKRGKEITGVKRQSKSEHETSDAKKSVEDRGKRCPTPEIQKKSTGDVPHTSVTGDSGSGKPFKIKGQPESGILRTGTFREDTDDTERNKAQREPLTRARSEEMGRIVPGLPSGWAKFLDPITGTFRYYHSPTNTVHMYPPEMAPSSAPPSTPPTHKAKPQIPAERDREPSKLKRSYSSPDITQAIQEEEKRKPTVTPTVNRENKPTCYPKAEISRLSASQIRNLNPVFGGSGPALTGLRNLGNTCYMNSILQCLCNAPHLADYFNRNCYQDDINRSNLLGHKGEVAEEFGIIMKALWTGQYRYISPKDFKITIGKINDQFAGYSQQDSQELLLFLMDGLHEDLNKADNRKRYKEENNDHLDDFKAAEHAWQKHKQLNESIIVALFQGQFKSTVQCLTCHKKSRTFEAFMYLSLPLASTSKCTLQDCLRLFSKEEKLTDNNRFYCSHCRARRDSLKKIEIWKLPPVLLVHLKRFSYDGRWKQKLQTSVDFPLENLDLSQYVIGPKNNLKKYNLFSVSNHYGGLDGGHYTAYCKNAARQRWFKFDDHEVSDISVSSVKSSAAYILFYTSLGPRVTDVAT
Text: The cDNA encoding USP8 was obtained by PCR amplification from placenta mRNA. USP8 cDNA was subcloned by PCR into a baculovirus expression vector (pFastBac-HT; Invitrogen). A cDNA encoding a mutated USP8 was generated by mutagenic PCR. The corresponding protein encodes a cysteine to alanine substitution at residue 786. The sequences were ascertained by sequencing of the entire open reading frame. Bacmids encoding […] were generated following DH10bac transposition. The corresponding bacmids were transfected. into insect cells (Sf9). Viruses were recovered from culture supernatant and amplified twice. Insect cells (Sf9 or High Five; Invitrogen) were infected for 72 hours. Total cell lysates were harvested and lyzed in lysis buffer (Tris HCl 50 mM pH 7.6; 0.75 % NP40; 500 mM NaCl; 10% glycerol; 1 mM DTT; 10 mM imidazole; Protease Inhibitor Cocktail; AEBSF 20 μg.ml^−1; Aprotinin 10 μg.ml^−1). Proteins were affinity purified on metal affinity resins (Talon Metal affinity resin; BD Biosciences). Bound materials were extensively washed in wash buffer (50 mM Sodium Phosphate pH 7.0; 300 mM NaCl; 10 mM imidazole; 0.5% Triton X-100; 10% glycerol) and eluted from the resin in 250 mM imidazole-containing wash buffer. Proteins were dialyzed in dialysis buffer (Tris HCl pH 7.6 20 mM; NaCl 200 mM; DTT 1 mM; EDTA 1 mM; 10% Glycerol). Proteins purifications were analyzed on 4-12% NuPAGE (Invitrogen).
USP8 was diluted in USP buffer (50 mM Tris HCl; 0.5 mM EDTA; 5 mM DTT; 0.01% Triton X-100; Bovine Serum Albumin 0.05 mg.ml^−1 pH8.8). Compounds stocks (100 mM) were stored at −20° C. in DMSO.
Reactions were performed as duplicates in Black LJL 96 well plates (HE microplates; Molecular Devices; 20 μl final reaction volume).The substrate concentration for USP8 was 400 nM Ub-AMC (Boston Biochem). The concentrations of the enzyme (USP8) in specificity assays was 630 pM. The concentrations were determined in order to perform specificity assays under initial velocities at fixed substrate concentration. Compounds were pre-incubated with enzymes for 30 minutes at 25° C. Reactions were initiated by addition of substrate to the plates containing the enzymes (+/− compounds) diluted in assay buffer. Reactions were incubated for 60 minutes at 37° C. Reactions were stopped by adding acetic acid (100 mM final). Readings were performed on a Pherastar Fluorescent Reader (BMG). λ Emission 380 nm; λ Excitation=460 nm. Data (mean values +/− standard deviation) were analyzed as % of control (no compound) and plotted as percentage versus the Log of the compound concentration using GraphPad (Prism). Data were fitted to a sigmoidal model (variable slope).

[2] = test system: HCT116 colon cancer cells; experiment: HCT116 cell viability and proliferation assay (MTS); type: cell-based; conditions: mean of three independent experiments, read-out: HCT116 GI50 D3
Outline: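 HCT116 cells, 10^3 per well, treated 24 h after seeding with eight concentrations from 10 μM to 5 nM (0.5% final DMSO), in triplicate, for 72 h. Viability read by MTS reduction (2 h) at 492 nm. GI50 from sigmoidal variable-slope fit; mean of three independent experiments.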

[3] = Homo sapiens, HCT-116, 72 hours incubation

Compound | IC50 [1] [nM] | GI50 ([2]; 72 hours incubation) [nM] | GI50 [2, 3] [nM]
6-(7)-Chloro-1-methyl-2,3,4,10,10a-pentaaza-cyclopenta[b]fluoren-9-one [Example 3/A] | 301 | 361 | –
CC(C)c1nnc2nc3c(nn12)C(=O)c1ccccc1-3 [Example 1l/A, 1-lsopropyl-2,3,4,10,10a-pentaaza-cyclopenta[b]fluoren-9-one] | – | – | 2250
CC(C)c1nnc2nc3c(nn12)-c1ccccc1C3=O [Example 1l/B, 3-Isopropyl-1,2,3a,4,10-pentaaza-cyclopenta[b]fluoren-9-one] | 186 | – | 157
O=C1c2ccccc2-c2nn3c(C(F)(F)F)nnc3nc21 [Example 1m/B, 3-Trifluoromethyl-1,2,3a,4,10-pentaaza-cyclopenta[b]fluoren-9-one] | 162 | – | 28
COCCOCCOCc1nnc2nc3c(nn12)C(=O)c1ccccc1-3 [Example 1n/A, 1-[2-(2-Methoxy-ethoxy)-ethoxymethyl]-2,3,4,10,10a-pentaaza-cyclopenta[b]fluoren-9-one] | 347 | – | 1910
COc1cc2c(cc1OC)-c1nn3c(C)nnc3nc1C2=O [Example 5a/B, 6,7-Dimethoxy-3-methyl-1,2,3a,4,10-pentaaza-cyclopenta[b]fluoren-9-one] | 46 | – | 818
CCc1nnc2nc3c(nn12)C(=O)c1cc(OC)c(OC)cc1-3 [Example 5b/A, 1-Ethyl-6,7-dimethoxy-2,3,4,10,10a-pentaaza-cyclopenta[b]fluoren-9-one] | 805 | – | –
CCc1nnc2nc3c(nn12)-c1cc(OC)c(OC)cc1C3=O [Example 5b/B, 3-Ethyl-6,7-dimethoxy-1,2,3a,4,10-pentaaza-cyclopenta[b]fluoren-9-one] | 65 | – | 1180
CCCc1nnc2nc3c(nn12)-c1cc(OC)c(OC)cc1C3=O [Example 5c/B, 6,7-Dimethoxy-3-propyl-1,2,3a,4,10-pentaaza-cyclopenta[b]fluoren-9-one] | 104 | – | 594
CCc1nnc2nc3c(nn12)-c1c(OC)ccc(OC)c1C3=O [Example 6/B, 3-Ethyl-5,8-dimethoxy-1,2,3a,4,10-pentaaza-cyclopenta[b]fluoren-9-one] | 360 | – | 257
